These results are taken from patent publication US20100056524A1, “Compound” (priority 2008, published 2010).

The experiment deals with panel of different kinases. The experiment in a line: Selectivity across kinase panel (Gini coefficient). In kind it is biochemical, human. As to conditions: for GINI Coefficient: value between 0 and 1, higher = more selective. The source says:
Table compares the activity of Example 23 with cyclobutanecarboxylic acid {3-[5-bromo-2-(3-fluoro-phenylamino)-pyrimidin-4-ylamino]-propyl}-amide (Compound A)^13, against a panel of different kinases, where the residual kinase activity, in %, at two concentrations of the compounds is expressed. The higher the percentage residual activity, the lower the degree of inhibition of the kinase.

`O=C(NCCCNc1nc(Nc2cccc(F)c2)ncc1Br)C1CCC1` [Compound A, cyclobutanecarboxylic acid {3-[5-bromo-2-(3-fluoro-phenylamino)-pyrimidin-4-ylamino]-propyl}-amide, reference compound]: the “GINI Coefficient” value is on record as 0.19 (@ 10 μM) and “significantly lower value than Example 23” (in words).
Consider `O=C(NCCCNc1nc(Nc2cccc(F)c2)ncc1C1CC1)C1CCC1` [Example 23, Cyclobutanecarboxylic acid {3-[5-cyclopropyl-2-(3-fluoro-phenylamino)-pyrimidin-4-ylamino]-propyl}-amide], for which the “GINI Coefficient” value (@ 10 μM) is on record as 0.35. For the setting “in words”, the “selectivity across kinase panel” value is recorded as “significant improvement of selectivity across this kinase panel”.
